≈ marks a conversion by molar mass, not a printed value. Like-named read-outs stand apart in the source and are kept apart here.
Legend:
[1] = Aqueous and phase solubility of voriconazole with SAE-CD; assay type: physicochemical
[2] = test system: Aspergillus fumigatus clinical isolate 293 (AF 293); experiment: Survival of A. fumigatus-infected immunosuppressed mice (Kaplan-Meier); assay type: in vivo; conditions: for Percent Survival / Median Survival: A. fumigatus-infected female ICR mice, VOR inhalation BID 30-40 mg/kg, AmB intraperitoneal QD 1 mg/kg; for Percent Survival: to Day +12
Excerpt: Conidia were harvested from Aspergillus fumigatus clinical isolate 293 (AF 293) cultures grown on potato dextrose agar (Hardy Diagnostics, Santa Maria, Calif.) by washing and scraping agar surfaces with 0.1% Tween 80 in sterile physiological saline and filtering through sterile glass wool. Conidia were re-suspended to achieve a final inoculum of ˜1×10^9 conidia/mL, as confirmed by hemocytometer counts and serial plating.
Mice were rendered immunosuppressed by intraperitoneal cyclophosphamide (250 mg/kg) and subcutaneous cortisone acetate (250 mg/kg) two days prior to inoculation (Day −2). Both cyclophosphamide (200 mg/kg intraperitoneal) and cortisone acetate (250 mg/kg subcutaneously) were re-administered on Day +3 following inoculation. Mice also received prophylactic antibiotic therapy of ceftazidime 50 mg/kg administered sub-cutaneously on Day −2 through Day +7.
To simulate pulmonary pathogenesis, mice were placed inside an acrylic chamber, and A. fumigatus conidia were introduced by aerosolizing the conidial suspension with a small particle nebulizer (Hudson Micro Mist, Hudson RCI, Temecula, Calif.) driven by compressed air. A standard exposure time of 1 hour was used to allow for complete aerosolization of the conidial suspension. Starting inocula were assessed by colony forming unit (CFU) enumeration from mice one hour post-inoculation.
The inhaled control group received 20 minute nebulizations of 100 mg/mL CAPTISOL® solutions BID beginning on Day −2 and continuing through Day +7. The intraperitoneal AmB group received 1 mg/kg Amphotericin B deoxycholate (Apothecon, Princeton, N.J.) by intraperitoneal injection (IP) once daily (QD) on Day +1 and continuing through Day +7 (FIG. 2).
Statistical analyses were conducted as follows. Survival was plotted by Kaplan-Meier analysis, and differences in median survival and percent survival between prophylaxis groups were analyzed by the log-rank test and chi-square test, respectively, using Prism version 4 software (GraphPad, San Diego, Calif.). […] A p-value of ≦0.05 was considered statistically significant for all comparisons.

Aspergillus fumigatus [3] = experiment: Pulmonary fungal burden by colony forming units in infected mice; assay type: in vivo
Method: (§1) Mice were monitored for an additional 5 days following discontinuation of treatment. Animals that appeared moribund prior to the end of the study were euthanized by halothane and death was recorded as occurring the next day. 12 mice were randomly selected from each group and euthanized on Day +8 for fungal burden analysis while any remaining mice were euthanized on Day +12. 2 additional mice were randomly selected from each group and euthanized on Day +8 and Day +12 for histological analysis
Lungs were homogenized in sterile saline (total volume 2 mL) supplemented with gentamicin and chloramphenicol using a tissue homogenizer (Polytron Dispensing and Mixing Technology PT 2100, Kinematica, Cincinnati, Ohio). Serial dilutions were prepared in sterile saline and plated in duplicate onto potato dextrose agar. Following 24 hours of incubation at 37° C., colonies were enumerated and colony forming units (CFU) per gram of lung tissue for each animal were calculated.
(§2) Statistical analyses were conducted as follows. Survival was plotted by Kaplan-Meier analysis, and differences in median survival and percent survival between prophylaxis groups were analyzed by the log-rank test and chi-square test, respectively, using Prism version 4 software (GraphPad, San Diego, Calif.). Differences in fungal burden endpoints (CFU/g and CE) were assessed for significance by analysis of variance with Tukey's post-test for multiple comparisons. A p-value of ≦0.05 was considered statistically significant for all comparisons.

Aspergillus fumigatus [4] = experiment: Pulmonary fungal burden by real-time quantitative PCR (conidial equivalents) in infected mice; assay type: in vivo; conditions: Day + 8 per table footnote
Method: as §1
Pulmonary fungal burden was also quantified by real-time quantitative polymerase chain reaction (qPCR) using previously described methods. Briefly, DNA was extracted from […] of lung homogenate with the use of a commercially available kit (DNeasy Tissue Kit, Qiagen, Valencia, Calif.) according to the manufacturer's instructions. DNA samples were analyzed in duplicate with the use of the ABI PRISM 7300 sequence-detection system (Applied Biosystems, Foster City, Calif.) with primers and dual-labeled fluorescent hybridization probes specific for the A. fumigatus 1,3-β-glucan synthase (FKS) gene (GenBank accession number U79728). The threshold cycle (Ct) of each sample was interpolated from a six-point standard curve generated by spiking naive mouse lungs with known amounts of conidia (102 to 107). An internal standard was amplified in separate reactions to correct for differences in DNA recovery. The resulting data was expressed as conidial equivalents (CE).
as §2

A. fumigatus = conditions: cited from earlier work
Aspergillus fumigatus [5] = conditions: cited from earlier work
[6] = single dose of IV or oral voriconazole; cited from earlier work
[7] = Single-dose pharmacokinetics of inhaled voriconazole in mice; conditions: for AUC(0-t): AUC (0-6 hr) Plasma
Method: Initially, a single dose PK profile was performed on large mice with a 5 L/min flow rate through the dosing apparatus (see Table 2).
A subsequent PK study was then performed on smaller mice due to the mouse size constraints of the murine model of infection at a lower air flow rate of 1 L/min. Male ICR mice were exposed to a 20 minute nebulization period. […] Plasma was separated from whole blood collected to determine drug concentration (adapted from Pascual et al., Antimicrobial Agents and Chemotherapy, 2007, 51:1). Lungs were harvested and homogenized to determine drug concentration (adapted from Lutsar et al., Clinical Infectious Disease, 2003, 37:5).
Mice were dosed using a nose-only dosing apparatus as illustrated in FIGS. 1A-1B. VFEND® IV was reconstituted, diluted, and aerosolized as described previously. The airflow through the dosing apparatus was varied from 1-5 L/min (see Table 2). Sufficient solution was added to the medication reservoir to have residual volume remaining after 20 minutes. The nose-only dosing apparatus and nebulizer were disassembled between each dose, cleaned, dried, and reassembled.
Pharmacokinetic (PK) profiles were determined for high flow rate and low flow rate mice groups following a single 20 minute nebulization. Mice were ordered with masses of 32 g (high flow rate mice) and 20 g (low flow rate mice). Two or more mice were sacrificed by carbon dioxide narcosis at each time point (high flow rate mice—5, 10, 20, 30, 60, 90, 150, 240, 360, 720, and 1440 minutes or low flow rate mice—10, 30, 60, 240, 360, and 480 minutes). Whole blood was collected by cardiac puncture, stored in heparinized vials, and centrifuged to obtain plasma. Surgery was also performed on each mouse to extract the whole lungs which were then homogenized in 1 mL of normal saline. […] The trapezoidal rule was used to estimate the area under the curve (AUC) for each concentration versus time profile.
Briefly, sterile water for injection (SWFI) was added to lung tissue and homogenized using a rotor and stator high shear homogenizer. Proteins and other cellular components were precipitated following addition of 0.2M borate buffer (pH 9.0), ethyl acetate, and centrifugation. Supernatant was then extracted three times and liquid was evaporated under a gentle stream of nitrogen.
For lung tissue, SWFI was added to lung tissue and homogenized using a rotor and stator high shear homogenizer. […] Supernatant was then extracted three times and liquid was evaporated under a gentle stream of nitrogen.
Each sample was analyzed using a Waters Breeze liquid chromatograph (Waters Corporation, Milford Mass.) equipped with a heated (35° C.) JUPITER® C18 (150 mm×4.6 mm, 5 micrometer) with a Universal security guard (Widepore C18) guard column (Phenomenex, Torrance, Calif.). The sample volume was 50 microliter with a UV detection wavelength of 254 nm. The mobile phase consisted of a 50:50 mixture of 0.01 M sodium acetate buffer and methanol at 1 mL/min.
Male ICR mice were dosed using a nose-only dosing apparatus as illustrated in FIGS. 1A and 1B. The airflow through the dosing apparatus was varied from 1-5 L/min. VFEND® IV was reconstituted, diluted, and sufficient solution was added to the medication reservoir to have residual volume remaining after 20 minutes. The nose-only dosing apparatus and nebulizer were disassembled between each dose, cleaned, dried, and reassembled.
Single-dose pharmacokinetic profiles were determined in two groups of mice: a high flow-rate group (5 L/min air flow, 32 g average mass) and low flow-rate group (1 L/min, 20 g average mass). Two or more mice were sacrificed by carbon dioxide narcosis at each time point (high flow-rate: 5, 10, 20, 30, 60, 90, 150, 240, 360, 720, and 1440 minutes or low flow-rate mice: 10, 30, 60, 240, 360, and 480 minutes). Whole blood was collected by cardiac puncture into heparinized vials and centrifuged to obtain plasma.

[8] = Small Mice (low flow rate, 1 L/min), single dose

Q: For `CC(c1ncncc1F)C(O)(Cn1cncn1)c1ccc(F)cc1F` (stereo not shown) [Voriconazole, 2-(2,4-difluorophenyl)-3-(5-fluoropyrimidin-4-yl)-1-(1H-1,2,4-triazol-1-yl)butan-2-ol], which solubility ([1]; water with SAE-CD, aqueous with cosolvent or surfactant or cyclodextrin, thermodynamic from solid, Voriconazole (mg/ml) at saturated solubility, SAE-CD 43.26 mg/ml (r4)) is on record?
A: Its solubility is 3.34 mg/mL (≈ 9.56 mM).

Q: And the solubility ([1]; water with SAE-CD, aqueous with cosolvent or surfactant or cyclodextrin, thermodynamic from solid, Voriconazole (mg/ml) at saturated solubility, SAE-CD 43.26 mg/ml as printed (r8))?
A: Its solubility is 35.1 mg/mL (≈ 101 mM).

Q: And the solubility ([1]; water with SAE-CD, aqueous with cosolvent or surfactant or cyclodextrin, thermodynamic from solid, Voriconazole (mg/ml) at saturated solubility, SAE-CD 108.15 mg/ml)?
A: The solubility was 8.39 mg/mL (≈ 24 mM).

Q: What about the solubility ([1]; water with SAE-CD, aqueous with cosolvent or surfactant or cyclodextrin, thermodynamic from solid, Voriconazole (mg/ml) at saturated solubility, SAE-CD 216.3 mg/ml) of the same molecule?
A: The solubility was 17.3 mg/mL (≈ 49.6 mM).

Q: And the solubility ([1]; water with SAE-CD, aqueous with cosolvent or surfactant or cyclodextrin, thermodynamic from solid, Voriconazole (mg/ml) at saturated solubility, SAE-CD 324.45 mg/ml)?
A: The solubility was 26.5 mg/mL (≈ 75.8 mM).

Q: What about the solubility ([1]; water, room temperature, absence of water soluble cyclodextrin derivative, read-out: aqueous solubility) of the same molecule?
A: Its solubility is 0.68 to 0.69 mg/mL (≈ 1.95 to 1.98 mM).

Q: What about the “Percent Survival” value [2] of the same molecule?
A: Its value is 66.7%.

Q: What about the “Percent Survival” value ([2]; listed as voriconazole) of the same molecule?
A: Its value is “Approximately 67%”.

Q: And the “Median Survival” value [2]?
A: The value was >12 days.

Q: What about the “Median Survival” value ([2]; listed as voriconazole) of the same molecule?
A: Its value is “over 12 days”.

Q: And the “difference in survival versus negative control (inhaled Captisol) and positive control (intraperitoneal Amphotericin B)” value ([2]; Kaplan-Meier survival curves)?
A: Its value is “statistically significant (p<0.05) difference in survival”.

Q: What about the “A - Day 8 Fungal Burden Determined by CFU, Mean” value (Aspergillus fumigatus [3]; Day +8) of the same molecule?
A: Its value is 4.26 log10 CFU.

Q: What about the “A - Day 8 Fungal Burden Determined by CFU, Median” value (Aspergillus fumigatus [3]; Day +8) of the same molecule?
A: The value was 4.21 log10 CFU.

Q: And the “A - Day 8 Fungal Burden Determined by CFU, Range” value (Aspergillus fumigatus [3]; Day +8)?
A: Its value is “(3.62-4.68) log10 CFU”.

Q: And the “B - Fungal Burden Determined by CFU for All Mice, Mean” value (Aspergillus fumigatus [3]; all samples, day 8 and day 12)?
A: The value was 3.88 log10 CFU.

Q: And the “B - Fungal Burden Determined by CFU for All Mice, Median” value (Aspergillus fumigatus [3]; all samples, day 8 and day 12)?
A: The value was 4.14 log10 CFU.

Q: And the “B - Fungal Burden Determined by CFU for All Mice, Range” value (Aspergillus fumigatus [3]; all samples, day 8 and day 12)?
A: The value was “(2.60-4.68) log10 CFU”.

Q: And the “reduction in fungal burden between the groups (CFUs per gram of lung mass and CEs by qPCR)” value (Aspergillus fumigatus [3]; in vivo)?
A: Its value is “no significant reduction in fungal burden”.

Q: What about the “C - Conidial Equivalents Determined by qPCR, Mean” value (Aspergillus fumigatus [4]) of the same molecule?
A: Its value is 4.56 log10 conidial equivalents.

Q: And the “C - Conidial Equivalents Determined by qPCR, Median” value (Aspergillus fumigatus [4])?
A: Its value is 4.59 log10 conidial equivalents.

Q: What about the “C - Conidial Equivalents Determined by qPCR, Range” value (Aspergillus fumigatus [4]) of the same molecule?
A: Its value is “(3.77-5.32) log10 conidial equivalents”.

Q: What about the “D - Conidial Equivalents per Gram of Lung Tissue Determined by Qpcr, Mean” value (Aspergillus fumigatus [4]; normalized for wet lung weight) of the same molecule?
A: Its value is 5.19 log10 conidial equivalents per.

Q: And the “D - Conidial Equivalents per Gram of Lung Tissue Determined by Qpcr, Median” value (Aspergillus fumigatus [4]; normalized for wet lung weight)?
A: Its value is 5.24 log10 conidial equivalents per.

Q: What about the “D - Conidial Equivalents per Gram of Lung Tissue Determined by Qpcr, Range” value (Aspergillus fumigatus [4]; normalized for wet lung weight) of the same molecule?
A: The value was “(4.45-5.98) log10 conidial equivalents per”.

Q: What about the “fungicidal activity at a low concentration” value (A. fumigatus) of the same molecule?
A: The value was 0.5 microgram/mL.

Q: What about the “EC50 value (concentration resulting in 50% inhibition of growth compared to control)” value (A. fumigatus; non-linear regression analysis) of the same molecule?
A: The value was 0.18 micrograms/mL.

Q: And the MIC50 (Aspergillus fumigatus [5]; A. fumigatus clinical test isolates)?
A: The MIC50 was 0.25 µg/mL (≈ 0.000716 mM).

Q: And the “minimum inhibitory concentrations for 90% of isolates (MIC90)” value (Aspergillus fumigatus [5]; Aspergillus fumigatus)?
A: The value was 0.5-1 microgram/mL.

Q: What about the MIC90 (Aspergillus fumigatus [5]; red line in FIG. 10) of the same molecule?
A: The MIC90 was 0.52 µg/mL (≈ 0.00149 mM).

Q: And the “typical Tmax in human plasma” value [6]?
A: Its value is 50 to 66 min.

Q: And the “Cmax Lung” value ([7]; Large Mice (high flow rate, 5 L/min), single dose)?
A: The value was 1.62 microgram/g.

Q: And the “AUC (0-6 hr) Lung” value [7, 8]?
A: Its value is 2408.0 microgram × min/g.

Q: What about the “Cmax Lung” value [7, 8] of the same molecule?
A: The value was 11.02 microgram/g.

Q: And the Kp ([7]; male, ICR, mouse, in vivo, inhaled or intranasal)?
A: Its Kp is 1.4 to 1.6.

Q: What about the Tmax ([7]; male, ICR, mouse, lung, inhaled or intranasal, 6.09 microgram/mL, Tmax Lung, Small Mice (low flow rate, 1 L/min), single dose, 20 minute nebulization) of the same molecule?
A: The Tmax was ≤ 30 min.

Q: And the Tmax ([7]; male, ICR, mouse, lung, inhaled or intranasal, Lung Tmax, summary table)?
A: The Tmax was 10 to 30 min.

Q: And the Tmax ([7]; male, ICR, mouse, lung, inhaled or intranasal, Tmax Lung, Large Mice (high flow rate, 5 L/min), single dose, 20 minute nebulization)?
A: The Tmax was 10 min.

Q: And the Tmax ([7]; male, ICR, mouse, lung, inhaled or intranasal, Tmax Lung, Small Mice (low flow rate, 1 L/min), single dose, 20 minute nebulization)?
A: Its Tmax is 30 min.

Q: What about the Tmax ([7]; male, ICR, mouse, plasma (heading says blood), inhaled or intranasal, Blood Tmax, summary table) of the same molecule?
A: The Tmax was 20 to 30 min.

Q: What about the Cmax ([7]; male, ICR, mouse, plasma, inhaled or intranasal, 6.09 microgram/mL, Cmax Plasma, Small Mice (low flow rate, 1 L/min), single dose) of the same molecule?
A: The Cmax was 7090 ng/mL.

Q: What about the Tmax ([7]; male, ICR, mouse, plasma, inhaled or intranasal, 6.09 microgram/mL, Tmax Plasma, Small Mice (low flow rate, 1 L/min), single dose, 20 minute nebulization) of the same molecule?
A: Its Tmax is ≤ 30 min.

Q: What about the AUC(0-t) ([7]; male, ICR, mouse, plasma, inhaled or intranasal, Large Mice (high flow rate, 5 L/min), single dose) of the same molecule?
A: Its AUC(0-t) is 2270 ng·h/mL.

Q: What about the AUC(0-t) ([7]; male, ICR, mouse, plasma, inhaled or intranasal, Small Mice (low flow rate, 1 L/min), single dose) of the same molecule?
A: The AUC(0-t) was 25800 ng·h/mL.

Q: What about the Cmax ([7]; male, ICR, mouse, plasma, inhaled or intranasal, Blood Cmax, single-dose) of the same molecule?
A: The Cmax was 7090 ng/mL.

Q: What about the Cmax ([7]; male, ICR, mouse, plasma, inhaled or intranasal, Cmax Plasma, Large Mice (high flow rate, 5 L/min), single dose) of the same molecule?
A: Its Cmax is 1180 ng/mL.

Q: What about the Tmax ([7]; male, ICR, mouse, plasma, inhaled or intranasal, Tmax Plasma, Large Mice (high flow rate, 5 L/min), single dose, 20 minute nebulization) of the same molecule?
A: The Tmax was 20 min.

Q: And the Tmax ([7]; male, ICR, mouse, plasma, inhaled or intranasal, Tmax Plasma, Small Mice (low flow rate, 1 L/min), single dose, 20 minute nebulization)?
A: Its Tmax is 30 min.

Q: What about the “Lung Cmax” value ([7]; single-dose, mouse) of the same molecule?
A: The value was 11020 ng/mL.

Q: What about the “increase in total drug exposure as measured by AUC0-6 for lung tissue and plasma” value ([7]; slower flow rate (small mice) versus high flow rate (large mice)) of the same molecule?
A: Its value is > 10 fold.

Reference: patent US20110224232A1 (Board of Regents, The University of Texas System, priority 2008, published 2011)
